Laboratory results as given in PMC2074754, “Effects of the selective bisindolylmaleimide protein kinase C inhibitor GF 109203X on P-glycoprotein-mediated multidrug resistance” (British Journal of Cancer, 1996).

Columns and labels:
[1] = molecular target: T1, P-glycoprotein (P-gp, MDR1) (Homo sapiens, UniProt P08183); assay: radioligand binding with self-competition by unlabelled vinblastine
T1 construct: gene ABCB1

[2] = molecular target: T1, P-glycoprotein (P-gp, MDR1); assay: [3H]vinblastine radioligand competition and inhibition of [3H]azidopine photoaffinity labelling of the […] kDa P-gp band; format: binding

T1 sequence (P08183 whole entry): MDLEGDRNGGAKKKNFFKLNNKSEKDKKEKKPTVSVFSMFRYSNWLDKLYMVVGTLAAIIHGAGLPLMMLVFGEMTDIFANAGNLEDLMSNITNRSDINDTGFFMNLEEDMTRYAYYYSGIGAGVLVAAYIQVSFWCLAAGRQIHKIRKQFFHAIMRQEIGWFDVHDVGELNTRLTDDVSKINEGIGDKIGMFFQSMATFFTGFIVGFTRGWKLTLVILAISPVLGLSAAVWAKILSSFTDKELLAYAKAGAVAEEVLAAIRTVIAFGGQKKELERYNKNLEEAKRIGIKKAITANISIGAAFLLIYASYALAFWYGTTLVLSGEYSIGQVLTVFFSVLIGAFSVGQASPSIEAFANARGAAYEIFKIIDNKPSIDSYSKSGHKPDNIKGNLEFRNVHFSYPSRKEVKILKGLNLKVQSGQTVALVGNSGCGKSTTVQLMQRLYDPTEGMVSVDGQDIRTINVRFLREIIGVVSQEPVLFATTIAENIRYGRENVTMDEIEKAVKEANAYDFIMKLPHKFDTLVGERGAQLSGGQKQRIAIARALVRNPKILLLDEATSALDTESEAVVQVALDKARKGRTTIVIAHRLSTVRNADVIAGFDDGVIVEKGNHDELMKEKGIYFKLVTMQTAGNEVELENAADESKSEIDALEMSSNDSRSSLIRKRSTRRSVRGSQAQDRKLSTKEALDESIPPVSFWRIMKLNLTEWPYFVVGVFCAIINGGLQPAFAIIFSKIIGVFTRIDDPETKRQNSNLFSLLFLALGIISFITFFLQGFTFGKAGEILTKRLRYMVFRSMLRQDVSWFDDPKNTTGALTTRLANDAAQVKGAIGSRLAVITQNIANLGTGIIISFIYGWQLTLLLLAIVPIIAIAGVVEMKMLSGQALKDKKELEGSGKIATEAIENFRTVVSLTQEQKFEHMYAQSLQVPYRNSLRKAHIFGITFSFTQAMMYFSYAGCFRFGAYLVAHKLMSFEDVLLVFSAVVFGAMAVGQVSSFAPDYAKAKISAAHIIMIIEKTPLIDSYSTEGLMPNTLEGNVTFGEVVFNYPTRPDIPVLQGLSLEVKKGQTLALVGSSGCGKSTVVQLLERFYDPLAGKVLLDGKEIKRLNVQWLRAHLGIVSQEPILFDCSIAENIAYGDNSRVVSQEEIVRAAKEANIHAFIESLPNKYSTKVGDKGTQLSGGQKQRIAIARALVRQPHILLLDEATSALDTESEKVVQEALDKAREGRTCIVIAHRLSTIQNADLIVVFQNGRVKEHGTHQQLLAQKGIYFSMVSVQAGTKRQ

SMILES	radioligand binding with self-competition by unlabelled vinblastine [1]	[3H]vinblastine radioligand competition and inhibition of [3H]azidopine photoaff [2]
CC[C@]1(O)C[C@@H]2CN(CCc3c([nH]c4ccccc34)[C@@](C(=O)OC)(c3cc4c(cc3OC)N(C)[C@H]3[C@@](O)(C(=O)OC)[C@H](OC(C)=O)[C@]5(CC)C=CCN6CC[C@]43[C@@H]65)C2)C1 [vinblastine sulphate]	Competition of [3H]vinblastine sulphate binding by unlabelled vinblastine sulphate was included as a control.	–
CN(C)CCCn1cc(C2=C(c3c[nH]c4ccccc34)C(=O)NC2=O)c2ccccc21 [GF 109203X]	–	Inhibition of the photo- affinity labelling was observed in a similar micromolar
